Data published in article PMC12377313, “New 1E,1′E-hydrazine-bis(phenoxy-1,2,3-triazol-acetamide) derivatives as potent inhibitors against acetylcholinesterase, butyrylcholinesterase, and α-glucosidase” (RSC Advances, 2025).
Where two headings read alike, the source gives them in different places.

What was measured:
[1] = tested on: HEK293 embryonic kidney cells; experiment: MTT cell viability assay, HEK293; assay type: cell-based; conditions: Homo sapiens, read-out: IC50 (μM) HEK-293
Method: The human neuroblastoma cell line SH-SY5Y (ATCC® CRL-2266™) and HEK293 (ATCC® CRL-1573™) human embryonic kidney cells were grown in Dulbecco's Modified Eagle Medium/Nutrient Mixture F-12 (DMEM/F-12) culture containing 10% heat-inactivated fetal bovine serum (FBS) and 1% antibiotics. The cells were incubated at 37 °C in a humidified atmosphere of 5% CO2. Both cell lines were provided by the American Type Culture Collection (ATCC).[30,31]
SH-SY5Y (ATCC® CRL-2266™) and HEK293 (ATCC® CRL-1573™) cells were seeded into 96-well plates at a density of 5 × 10^3 cells per well, and allowed to adhere overnight in a humidified incubator at 37 °C with 5% CO2. After attachment, the cells were treated with eight different concentrations of the target compounds (200, 100, 50, 25, 12.5, 6.25, 3.125, and 1.5625 μM), prepared via serial 1 : 2 dilutions, for 24 hours. Each concentration was tested in triplicate.
(§1) Following treatment, 10 μL of MTT solution (5 mg mL^−1 in PBS) was added to each well and incubated for an additional 4 hours under the same conditions. At the end of the incubation period, the medium containing MTT was carefully removed, and the formazan crystals formed by viable cells were solubilized in 100 μL of DMSO per well. The absorbance was measured at 570 nm using a microplate reader. The net absorbance (after blank subtraction) was used to calculate the percentage cell viability relative to the untreated control cells, which was set at 100%. All results were expressed as mean ± standard deviation (SD) of three independent experiments.[32,33]

α-glucosidase = α-glucosidase (Saccharomyces cerevisiae, UniProt P53341); experiment: α-Glucosidase inhibition assay (p-NPG substrate); assay type: biochemical, yeast
Method: For this assay, the yeast form of α-glucosidase was used and p-nitrophenyl-α-D-glycopyranoside (p-NPG) was used as the substrate. The required solutions of these materials were prepared in a phosphate buffer solution (pH of 7.4 and a concentration of 5 mM). […] Subsequently, a mixture containing 200 μL of phosphate solution, 50 μL of the substrate, and 5–200 μL of the sample solution was pre-incubated at 35 °C for 3 min for α-glucosidase.

[2] = tested on: SH-SY5Y neuroblastoma cells; experiment: MTT cell viability assay, SH-SY5Y; assay type: cell-based, human; conditions: for Selectivity (selectivity index): HEK293 versus SH-SY5Y; for IC50: read-out: IC50 (μM) SH-SY5Y
Method: The cells were incubated at 37 °C in a humidified atmosphere of 5% CO2. Both cell lines were provided by the American Type Culture Collection (ATCC).[30,31]
Each concentration was tested in triplicate.
as §1

BChE = BChE (Homo sapiens, UniProt P06276); experiment: biochemical
AChE = AChE (Homo sapiens, UniProt P22303); experiment: biochemical; assay type: biochemical
[3] = HEK293, 24 h treatment, MTT, mean ± SD (n = 3)
[4] = Homo sapiens, SH-SY5Y, 24 h, 24 h treatment, MTT, mean ± SD (n = 3)
[5] = 24 h treatment, MTT, mean ± SD (n = 3)
[6] = read-out: IC50 (nM) α-Glucosidase

Sequence of BChE (P06276 29-602): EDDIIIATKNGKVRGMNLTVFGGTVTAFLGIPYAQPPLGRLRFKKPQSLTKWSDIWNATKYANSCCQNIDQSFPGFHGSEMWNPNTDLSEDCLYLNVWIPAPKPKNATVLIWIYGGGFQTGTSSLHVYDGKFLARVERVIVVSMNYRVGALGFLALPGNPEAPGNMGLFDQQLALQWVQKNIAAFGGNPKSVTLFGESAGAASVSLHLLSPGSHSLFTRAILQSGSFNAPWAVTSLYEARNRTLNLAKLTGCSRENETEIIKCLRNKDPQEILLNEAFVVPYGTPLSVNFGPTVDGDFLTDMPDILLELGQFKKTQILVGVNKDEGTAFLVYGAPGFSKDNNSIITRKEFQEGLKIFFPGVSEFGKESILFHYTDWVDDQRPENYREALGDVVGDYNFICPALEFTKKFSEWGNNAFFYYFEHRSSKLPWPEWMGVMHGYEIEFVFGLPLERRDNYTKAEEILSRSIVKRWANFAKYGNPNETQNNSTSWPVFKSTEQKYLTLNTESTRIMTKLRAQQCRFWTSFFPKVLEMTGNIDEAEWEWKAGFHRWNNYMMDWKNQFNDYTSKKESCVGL
Sequence of α-glucosidase (P53341 whole entry): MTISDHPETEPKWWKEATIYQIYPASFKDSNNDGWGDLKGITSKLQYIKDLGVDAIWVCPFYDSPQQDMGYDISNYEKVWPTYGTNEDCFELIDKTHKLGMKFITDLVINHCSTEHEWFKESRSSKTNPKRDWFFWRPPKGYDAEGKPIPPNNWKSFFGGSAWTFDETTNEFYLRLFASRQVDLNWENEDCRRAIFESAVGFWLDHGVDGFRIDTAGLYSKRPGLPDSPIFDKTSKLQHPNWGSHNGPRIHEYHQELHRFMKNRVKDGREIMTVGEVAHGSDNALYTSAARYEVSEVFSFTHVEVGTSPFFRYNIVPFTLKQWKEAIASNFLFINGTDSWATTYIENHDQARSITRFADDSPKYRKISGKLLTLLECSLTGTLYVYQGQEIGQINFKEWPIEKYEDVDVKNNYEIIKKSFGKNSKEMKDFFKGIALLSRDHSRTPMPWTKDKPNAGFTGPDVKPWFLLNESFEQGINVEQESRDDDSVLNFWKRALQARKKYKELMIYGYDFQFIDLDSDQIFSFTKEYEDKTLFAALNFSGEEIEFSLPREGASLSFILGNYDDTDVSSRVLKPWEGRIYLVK
Sequence of AChE (P22303 32-614): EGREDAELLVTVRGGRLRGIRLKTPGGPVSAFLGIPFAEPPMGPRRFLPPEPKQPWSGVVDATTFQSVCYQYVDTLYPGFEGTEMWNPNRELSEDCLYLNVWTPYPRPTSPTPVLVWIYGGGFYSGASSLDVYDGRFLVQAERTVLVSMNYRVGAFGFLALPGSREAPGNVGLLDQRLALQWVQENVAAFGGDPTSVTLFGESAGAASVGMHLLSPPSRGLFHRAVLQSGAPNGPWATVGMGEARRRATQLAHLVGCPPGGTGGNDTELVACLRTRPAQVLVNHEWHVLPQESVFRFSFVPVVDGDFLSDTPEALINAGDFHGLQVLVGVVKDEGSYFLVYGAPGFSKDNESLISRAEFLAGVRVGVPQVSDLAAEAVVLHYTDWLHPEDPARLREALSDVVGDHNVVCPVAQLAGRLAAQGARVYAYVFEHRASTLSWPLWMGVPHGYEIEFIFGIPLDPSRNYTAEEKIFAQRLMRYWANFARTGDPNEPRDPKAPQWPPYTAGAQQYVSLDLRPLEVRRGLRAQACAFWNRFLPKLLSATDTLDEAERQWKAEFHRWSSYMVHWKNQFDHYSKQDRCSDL

Row | Compound | IC50 [1, 3] [µM] | IC50 (α-glucosidase) [nM] | Selectivity (selectivity index) [2] | IC50 [2, 4] [µM] | IC50 (BChE) [nM] | IC50 (AChE; read-out: IC50 (nM) AChE) [nM] | IC50 [2, 5] [µM] | folds more potent than the standard inhibitor acarbose against α-glucosidase (α-glucosidase; relative to acarbose) [fold] | fold diminished anti-AChE inhibitory activity relative to 10k (AChE; removal of 2-chloro substituent, versus 10k) [fold] | IC50 ([1]; HEK293, 24 h) [µM] | IC50 (α-glucosidase; [6]) [nM] | IC50 ([2]; Homo sapiens, SH-SY5Y, 24 h) [µM] | IC50 (AChE) [nM]
1 | Cc1ccccc1NC(=O)Cn1cc(COc2ccc(/C=N/N=C/c3ccc(OCc4cn(CC(=O)Nc5ccccc5C)nn4)cc3)cc2)nn1 [Compound 10a, 2,2′-((((((1E,1′E)-Hydrazine-1,2-diylidenebis(methaneylylidene))bis(4,1-phenylene))bis(oxy))bis(methylene))bis(1H-1,2,3-triazole-4,1-diyl))bis(N-(o-tolyl)acetamide)] | 78.21 ± 0.42 | 43.1 ± 8.21 | 9.5 | 8.22 ± 0.12 | 18.4 ± 3.09 | 163 ± 5.38 | – | – | – | – | – | – | –
2 | Cc1cccc(NC(=O)Cn2cc(COc3ccc(/C=N/N=C/c4ccc(OCc5cn(CC(=O)Nc6cccc(C)c6)nn5)cc4)cc3)nn2)c1 [Compound 10b, 2,2′-((((((1E,1′E)-Hydrazine-1,2-diylidenebis(methaneylylidene))bis(4,1-phenylene))bis(oxy))bis(methylene))bis(1H-1,2,3-triazole-4,1-diyl))bis(N-(m-tolyl)acetamide)] | 43.42 ± 0.36 | 62.1 ± 5.43 | 2.7 | 15.8 ± 0.2 | 18.3 ± 4.84 | 167 ± 9.46 | – | – | – | – | – | – | –
3 | Cc1ccc(NC(=O)Cn2cc(COc3ccc(/C=N/N=C/c4ccc(OCc5cn(CC(=O)Nc6ccc(C)cc6)nn5)cc4)cc3)nn2)cc1 [Compound 10c, 2,2′-((((((1E,1′E)-Hydrazine-1,2-diylidenebis(methaneylylidene))bis(4,1-phenylene))bis(oxy))bis(methylene))bis(1H-1,2,3-triazole-4,1-diyl))bis(N-(p-tolyl)acetamide)] | 46.91 ± 0.32 | 67 ± 7.88 | 3.9 | 12 to 16 | 17.1 ± 3.21 | 164 ± 9.7 | 11.9 ± 0.2 | – | – | – | – | – | –
4 | Cc1cccc(NC(=O)Cn2cc(COc3ccc(/C=N/N=C/c4ccc(OCc5cn(CC(=O)Nc6cccc(C)c6C)nn5)cc4)cc3)nn2)c1C [Compound 10d, 2,2′-((((((1E,1′E)-Hydrazine-1,2-diylidenebis(methaneylylidene))bis(4,1-phenylene))bis(oxy))bis(methylene))bis(1H-1,2,3-triazole-4,1-diyl))bis(N-(2,3-dimethylphenyl)acetamide)] | 75.22 ± 0.35 | 71.2 ± 8.14 | 4.6 | 12 to 16 | 14.9 ± 2.08 | 131 ± 7.23 | 16.4 ± 0.21 | – | – | – | – | – | –
5 | COc1ccc(NC(=O)Cn2cc(COc3ccc(/C=N/N=C/c4ccc(OCc5cn(CC(=O)Nc6ccc(OC)cc6OC)nn5)cc4)cc3)nn2)c(OC)c1 [Compound 10e, 2,2′-((((((1E,1′E)-Hydrazine-1,2-diylidenebis(methaneylylidene))bis(4,1-phenylene))bis(oxy))bis(methylene))bis(1H-1,2,3-triazole-4,1-diyl))bis(N-(2,4-dimethoxyphenyl)acetamide)] | 68.95 ± 0.41 | 58.5 ± 4.27 | 2.1 | > 30 | 16.3 ± 2.09 | 140 ± 9.43 | 33.19 ± 0.25 | – | – | – | – | – | –
6 | CCc1ccc(NC(=O)Cn2cc(COc3ccc(/C=N/N=C/c4ccc(OCc5cn(CC(=O)Nc6ccc(CC)cc6)nn5)cc4)cc3)nn2)cc1 [Compound 10f, 2,2′-((((((1E,1′E)-Hydrazine-1,2-diylidenebis(methaneylylidene))bis(4,1-phenylene))bis(oxy))bis(methylene))bis(1H-1,2,3-triazole-4,1-diyl))bis(N-(4-ethylphenyl)acetamide)] | 33.2 ± 0.55 | 66.4 ± 4.43 | 4.5 | 7.33 ± 0.11 | 17 ± 5.46 | 159 ± 6.17 | – | – | – | – | – | – | –
7 | O=C(Cn1cc(COc2ccc(/C=N/N=C/c3ccc(OCc4cn(CC(=O)Nc5ccccc5F)nn4)cc3)cc2)nn1)Nc1ccccc1F [Compound 10g, 2,2′-((((((1E,1′E)-Hydrazine-1,2-diylidenebis(methaneylylidene))bis(4,1-phenylene))bis(oxy))bis(methylene))bis(1H-1,2,3-triazole-4,1-diyl))bis(N-(2-fluorophenyl)acetamide)] | 86.45 ± 0.52 | 56.7 ± 6.34 | 6.7 | 12.9 ± 0.13 | 12.4 ± 3.21 | 112 ± 9.6 | – | – | – | – | – | – | –
8 | O=C(Cn1cc(COc2ccc(/C=N/N=C/c3ccc(OCc4cn(CC(=O)Nc5cccc(Cl)c5)nn4)cc3)cc2)nn1)Nc1cccc(Cl)c1 [Compound 10i, 2,2′-((((((1E,1′E)-Hydrazine-1,2-diylidenebis(methaneylylidene))bis(4,1-phenylene))bis(oxy))bis(methylene))bis(1H-1,2,3-triazole-4,1-diyl))bis(N-(3-chlorophenyl)acetamide)] | 37.4 ± 0.55 | 45.8 ± 4.71 | 8.8 | 4.26 ± 0.08 | 15.3 ± 3.16 | 164 ± 9.54 | – | – | – | – | – | – | –
9 | O=C(Cn1cc(COc2ccc(/C=N/N=C/c3ccc(OCc4cn(CC(=O)Nc5ccc(Cl)cc5)nn4)cc3)cc2)nn1)Nc1ccc(Cl)cc1 [Compound 10j, 2,2′-((((((1E,1′E)-Hydrazine-1,2-diylidenebis(methaneylylidene))bis(4,1-phenylene))bis(oxy))bis(methylene))bis(1H-1,2,3-triazole-4,1-diyl))bis(N-(4-chlorophenyl)acetamide)] | 67.43 ± 0.47 | 34.3 ± 3.49 | 10.0 | 6.75 ± 0.18 | 16.4 ± 4.43 | 145 ± 6.23 | – | 1.7 | 1.3 | – | – | – | –
10 | O=C(Cn1cc(COc2ccc(/C=N/N=C/c3ccc(OCc4cn(CC(=O)Nc5ccc(Br)cc5)nn4)cc3)cc2)nn1)Nc1ccc(Br)cc1 [Compound 10l, 2,2′-((((((1E,1′E)-Hydrazine-1,2-diylidenebis(methaneylylidene))bis(4,1-phenylene))bis(oxy))bis(methylene))bis(1H-1,2,3-triazole-4,1-diyl))bis(N-(4-bromophenyl)acetamide)] | 92.86 ± 0.71 | 39.1 ± 5.1 | 2.2 | > 30 | 16.4 ± 4.74 | 148 ± 8.23 | 42.15 ± 0.37 | – | – | – | – | – | –
11 | O=C(Cn1cc(COc2ccc(/C=N/N=C/c3ccc(OCc4cn(CC(=O)Nc5ccccc5[N+](=O)[O-])nn4)cc3)cc2)nn1)Nc1ccccc1[N+](=O)[O-] [Compound 10m, 2,2′-((((((1E,1′E)-Hydrazine-1,2-diylidenebis(methaneylylidene))bis(4,1-phenylene))bis(oxy))bis(methylene))bis(1H-1,2,3-triazole-4,1-diyl))bis(N-(2-nitrophenyl)acetamide)] | – | – | 1.6 | – | 16.9 ± 4.83 | – | – | – | – | 46.45 ± 0.45 | 36.6 ± 4.86 | 28.33 ± 0.26 | 157 ± 8.65
12 | O=C(Cn1cc(COc2ccc(/C=N/N=C/c3ccc(OCc4cn(CC(=O)Nc5ccc([N+](=O)[O-])cc5)nn4)cc3)cc2)nn1)Nc1ccc([N+](=O)[O-])cc1 [Compound 10n, 2,2′-((((((1E,1′E)-Hydrazine-1,2-diylidenebis(methaneylylidene))bis(4,1-phenylene))bis(oxy))bis(methylene))bis(1H-1,2,3-triazole-4,1-diyl))bis(N-(4-nitrophenyl)acetamide)] | – | – | 7.4 | – | 13.9 ± 4.3 | – | – | – | – | 38.42 ± 0.19 | 65.1 ± 6.01 | 5.22 ± 0.12 | 173 ± 9.71
13 | CNC(=O)c1cc(Oc2ccc(NC(=O)Nc3ccc(Cl)c(C(F)(F)F)c3)cc2)ccn1 [Sorafenib, reference compound] | 16.22 ± 0.14 | – | – | 3.88 ± 0.12 | – | – | – | – | – | – | – | – | –
